Results: ChEMBL document CHEMBL1149439, “A concise asymmetric route for the synthesis of a novel class of glucocorticoid mimetics containing a trifluoromethyl-substituted alcohol” (Bioorg Med Chem Lett, 2006)

Molecular target: T1, Glucocorticoid receptor (Homo sapiens, UniProt P04150)
T1 sequence (P04150 whole entry): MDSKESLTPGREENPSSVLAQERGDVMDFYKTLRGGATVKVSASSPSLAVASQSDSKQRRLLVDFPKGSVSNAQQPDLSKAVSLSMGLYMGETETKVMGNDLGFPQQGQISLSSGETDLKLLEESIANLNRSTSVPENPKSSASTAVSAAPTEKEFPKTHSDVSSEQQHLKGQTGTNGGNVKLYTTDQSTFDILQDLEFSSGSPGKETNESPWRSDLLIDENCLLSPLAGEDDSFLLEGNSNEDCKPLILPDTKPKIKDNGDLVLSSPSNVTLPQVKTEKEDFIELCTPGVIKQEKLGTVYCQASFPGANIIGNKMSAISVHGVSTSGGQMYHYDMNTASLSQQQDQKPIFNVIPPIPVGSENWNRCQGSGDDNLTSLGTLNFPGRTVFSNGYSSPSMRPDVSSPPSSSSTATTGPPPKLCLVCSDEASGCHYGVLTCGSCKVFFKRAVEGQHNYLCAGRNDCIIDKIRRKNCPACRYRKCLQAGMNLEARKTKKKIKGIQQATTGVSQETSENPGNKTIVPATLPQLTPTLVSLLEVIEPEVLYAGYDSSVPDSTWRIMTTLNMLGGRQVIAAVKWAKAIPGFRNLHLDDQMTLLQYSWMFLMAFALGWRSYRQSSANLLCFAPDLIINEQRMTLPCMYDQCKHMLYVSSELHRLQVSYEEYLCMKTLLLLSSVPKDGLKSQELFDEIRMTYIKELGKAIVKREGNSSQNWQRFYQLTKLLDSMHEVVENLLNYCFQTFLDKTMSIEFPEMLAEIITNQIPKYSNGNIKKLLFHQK
Assay: Binding affinity to glucocorticoid receptor by Fluorescence polarization

Row | IC50 [nM] | Structure (SMILES)
1 | 2000 | COc1ccc(F)cc1C(C)(C)C[C@](O)(Cc1ccc(Cl)cc1)C(F)(F)F
2 | 99 | COc1ccc(F)cc1C(C)(C)C[C@@](O)(Cc1ccc(Cl)cc1)C(F)(F)F
